Data published in patent US10189809B2, “SGC stimulators” (Ironwood Pharmaceuticals, Inc., priority 2010, dated 2019).
Where two headings read alike, the source gives them in different places.

Key:
[1] = target: soluble guanylate cyclase (sGC) (Homo sapiens (Human), UniProt Q02108+Q02153); assay: sGC-HEK-cGMP assay run with SNP incubation (HEK WC assay); assay type: cell-based
Summary of the method: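 EC50 values derive from concentration-response curves of intracellular cGMP in HEK293 cells, which express sGC endogenously. Compound and sodium nitroprusside were co-incubated 10 min at 37 °C after a 15-min 0.5 mM IBMX step, with 0.1 M HCl lysis and 1% DMSO vehicle.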

[2] = target: T1, Human soluble guanylate cyclase enzyme (hsGC) (Homo sapiens (Human), UniProt Q02108+Q02153); assay: Purified human sGC enzyme synergy assay in the presence of 1 μM sodium nitroprusside (SNP); assay type: biochemical; settings: for sGC Enzyme (fold increase at 10 μM with SNP): 10 μM compound; for sGC Enzyme (fold increase at 30 μM with SNP): 30 μM compound
T1 sequence (Q02153 whole entry): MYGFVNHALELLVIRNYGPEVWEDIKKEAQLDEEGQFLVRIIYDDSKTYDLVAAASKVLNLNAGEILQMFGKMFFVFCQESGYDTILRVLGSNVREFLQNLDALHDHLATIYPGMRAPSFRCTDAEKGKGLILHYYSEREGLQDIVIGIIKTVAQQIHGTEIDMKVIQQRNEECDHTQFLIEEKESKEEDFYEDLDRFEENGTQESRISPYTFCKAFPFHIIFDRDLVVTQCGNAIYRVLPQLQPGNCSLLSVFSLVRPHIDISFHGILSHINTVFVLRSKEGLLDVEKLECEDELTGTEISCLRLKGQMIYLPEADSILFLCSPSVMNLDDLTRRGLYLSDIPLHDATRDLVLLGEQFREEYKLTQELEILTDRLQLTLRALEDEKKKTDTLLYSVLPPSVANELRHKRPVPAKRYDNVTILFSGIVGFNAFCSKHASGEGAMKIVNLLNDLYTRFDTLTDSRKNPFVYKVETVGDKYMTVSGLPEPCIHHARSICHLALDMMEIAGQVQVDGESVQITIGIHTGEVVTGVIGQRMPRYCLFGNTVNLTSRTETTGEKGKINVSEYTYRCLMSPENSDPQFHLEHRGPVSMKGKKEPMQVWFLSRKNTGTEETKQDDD
T1 sequence (Q02108 whole entry): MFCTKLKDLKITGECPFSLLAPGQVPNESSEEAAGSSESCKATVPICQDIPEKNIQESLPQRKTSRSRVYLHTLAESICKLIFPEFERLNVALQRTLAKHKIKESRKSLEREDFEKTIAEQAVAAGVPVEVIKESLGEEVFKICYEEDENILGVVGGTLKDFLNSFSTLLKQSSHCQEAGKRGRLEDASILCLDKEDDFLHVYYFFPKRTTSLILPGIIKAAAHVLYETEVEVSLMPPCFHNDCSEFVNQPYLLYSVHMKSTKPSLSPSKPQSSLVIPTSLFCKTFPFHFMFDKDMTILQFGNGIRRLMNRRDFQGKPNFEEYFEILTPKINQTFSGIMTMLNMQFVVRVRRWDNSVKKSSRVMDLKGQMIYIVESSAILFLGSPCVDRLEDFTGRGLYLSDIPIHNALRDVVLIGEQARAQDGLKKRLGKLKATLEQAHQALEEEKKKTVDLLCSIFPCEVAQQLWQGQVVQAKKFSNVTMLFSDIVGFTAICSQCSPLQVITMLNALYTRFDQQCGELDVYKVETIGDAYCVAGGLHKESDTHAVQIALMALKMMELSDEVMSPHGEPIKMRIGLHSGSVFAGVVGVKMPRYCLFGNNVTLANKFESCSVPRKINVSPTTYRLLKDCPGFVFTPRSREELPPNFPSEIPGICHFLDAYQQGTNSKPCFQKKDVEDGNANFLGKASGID
Procedure: Human soluble guanylate cyclase enzyme (hsGC) obtained from Enzo Inc. (P/N: ALX-201-177) was used to evaluate the activity of test compounds. The assay reactions contained 0.1 M Tris (pH 8.0), 0.5 mg/mL BSA (pH 8.0), 2 mM DTT, 2 mM MgCl2, 300 μM GTP, 1 mM 3-isobutyl-1-methylxanthine (IBMX) and 5 ng human soluble guanylate cyclase enzyme. Test compounds in DMSO were then added (2 μL, 10 or 30 μM final concentration) and incubated (200 μL, 96-well plate format) at 37° C. for 30 minutes. The controls were carried out using 2 μL DMSO. After the 30 minute incubation, the reaction was stopped with the addition of 200 μL of cold methanol. The plate was then centrifuged at 3,200 rpm for 10 minutes at room temperature. Supernatants (200 μL) were collected and transferred to a new 96 well plate for analysis.
An 8 point cGMP (Sigma-Aldrich P/N: G6129) standard curve was prepared in assay buffer ranging from 0.156-20 μM. Samples for the cGMP standard curve were then diluted with an equal volume of methanol resulting in final cGMP concentrations of 0.078-10 μM.
The cGMP standard curve was generated using GraphPad Prism Software.
Calculations: Specific Activity was determined by the amount of cGMP formed (nmoles) per mg of sGC per min. Enzyme “fold-change” was calculated by dividing Specific Activity for test compounds by Specific Activity of DMSO controls.
Enzyme assays were performed as described above, but was done in the presence of 1 μM sodium nitroprusside (SNP).

[3] = target: T1, Human soluble guanylate cyclase enzyme (hsGC); assay: Purified human sGC enzyme activity assay; assay type: biochemical; settings: for sGC Enzyme (specific activity at 30 μM) / sGC Enzyme (fold increase at 30 μM without SNP) / sGC Enzyme (fold increase at 30 μM): 30 μM compound
Summary of the method: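 Values are fold-change of sGC specific activity, nmoles cGMP per mg enzyme per min, relative to DMSO controls. Reactions: 5 ng human enzyme, 300 μM GTP, 1 mM IBMX, 2 mM MgCl2/DTT, 0.1 M Tris pH 8.0, compound 10 or 30 μM final, 37° C for 30 minutes, methanol quench. cGMP read against a 0.078-10 μM final standard curve.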

[4] = read-out: HEK WC Assay (% Emax at 10 uM/with 10 uM SNP)
[5] = read-out: HEK WC Assay (% Emax at 30 uM/with 10 uM SNP)
[6] = read-out: HEK WC Assay (% Emax at 10 μM/with 10 uM SNP)
[7] = read-out: HEK WC Assay (% Emax at 30 μM/with 10 uM SNP)

soluble guanylate cyclase (sGC), sequence (Q02153 whole entry): as the sequence (Q02153 whole entry) above
soluble guanylate cyclase (sGC), sequence (Q02108 whole entry): as the sequence (Q02108 whole entry) above

Row | Compound | Emax at 10 µM [1, 4] [%] | Emax at 30 µM [1, 5] [%] | sGC Enzyme (fold increase at 10 μM with SNP) ([2]; with 1 μM SNP) | sGC Enzyme (fold increase at 30 μM with SNP) ([2]; with 1 μM SNP) | sGC Enzyme (specific activity at 10 μM) ([3]; 10 μM compound) | sGC Enzyme (fold increase at 10 μM without SNP) ([3]; 10 μM compound) | sGC Enzyme (specific activity at 30 μM) [3] | sGC Enzyme (fold increase at 30 μM without SNP) [3] | Emax at 10 µM [1, 6] [%] | Emax at 30 µM [1, 7] [%] | sGC Enzyme (fold increase at 30 μM with SNP) ([2]; with the addition of SNP) | sGC Enzyme (fold increase at 30 μM) ([3]; without the addition of SNP) | sGC Enzyme (fold increase at 10 μM with SNP) ([2]; with the addition of SNP) | sGC Enzyme (fold increase at 10 μM) ([3]; 10 μM compound, without the addition of SNP)
1 | Fc1ccccc1Cn1nc(-c2ccccn2)c(Cl)c1-c1ccccn1 [Compound I-63] | 0 to 10 | 0 to 10 | A (A = no increase to <2 fold increase) | A (A = no increase to <2 fold increase) | B (B = 50 to <100) | A (A = no increase to <2 fold increase) | B (B = 50 to <100) | A (A = no increase to <2 fold increase) |  |  |  |  |  | 
2 | Nc1nc(-c2cc(-c3ccon3)n(Cc3ccccc3F)n2)ncc1C(=O)O [Compound I-132] |  |  |  |  |  |  |  |  | 40 to 60 | 20 to 40 | C (C = 5 to <10 fold increase) | B (B = 2 to <5 fold increase) |  | 
3 | COc1ccc(-c2cc(-c3ncccn3)nn2Cc2ccccc2F)cc1 [Compound I-60] | 0 to 10 | 0 to 10 | A (A = no increase to <2 fold increase) | A (A = no increase to <2 fold increase) | B (B = 50 to <100) | A (A = no increase to <2 fold increase) | C (C = 100 to <200) | B (B = 2 to <5 fold increase) |  |  |  |  |  | 
4 | Fc1ccccc1Cn1nc(-c2ccccn2)cc1-c1ccc(Br)cn1 [Compound I-51, 5-bromo-2-(1-(2-fluorobenzyl)-3-(pyridin-2-yl)-1H-pyrazol-5-yl)pyridine] | 0 to 10 | 0 to 10 | A (A = no increase to <2 fold increase) | A (A = no increase to <2 fold increase) |  | A (A = no increase to <2 fold increase) |  | A (A = no increase to <2 fold increase) |  |  |  |  |  | 
5 | Fc1ccccc1Cn1nc(-c2ccccn2)c(Br)c1C1CCC1 [Compound I-64] | 0 to 10 | 0 to 10 | A (A = no increase to <2 fold increase) | B (B = 2 to <5 fold increase) | A (A = 0 to <50) | A (A = no increase to <2 fold increase) | B (B = 50 to <100) | A (A = no increase to <2 fold increase) |  |  |  |  |  | 
6 | Cc1ccc(-c2c(Br)c(-c3ccccn3)nn2Cc2ccccc2F)cc1 [Compound I-67] | 0 to 10 | 0 to 10 | A (A = no increase to <2 fold increase) | A (A = no increase to <2 fold increase) | C (C = 100 to <200) | A (A = no increase to <2 fold increase) | D (D = 200 to <500) | A (A = no increase to <2 fold increase) |  |  |  |  |  | 
7 | CC(C)(C)c1cnc(-c2cc(-c3ccon3)n(Cc3ccccc3F)n2)nc1N [Compound I-114] |  |  |  |  |  |  |  |  | 40 to 60 | 40 to 60 | D (D = 10 to <30 fold increase) | B (B = 2 to <5 fold increase) |  | 
8 | Cc1nc2c(N)nc(-c3cc(-c4nccs4)n(Cc4ccccc4F)n3)nc2[nH]1 [Compound I-95] |  |  |  |  |  |  |  |  | 10 to 20 | 20 to 40 | C (C = 5 to <10 fold increase) | A (A = no increase to <2 fold increase) |  | 
9 | Cc1cccc(-c2cc(-c3ccccn3)nn2Cc2ccccc2F)c1 [Compound I-22] | 0 to 10 | 0 to 10 | A (A = no increase to <2 fold increase) | A (A = no increase to <2 fold increase) | C (C = 100 to <200) | A (A = no increase to <2 fold increase) | C (C = 100 to <200) | B (B = 2 to <5 fold increase) |  |  |  |  |  | 
10 | Fc1ccccc1Cn1nc(-c2ccc(Br)cn2)cc1-c1ccccn1 [Compound I-52, 5-bromo-2-(1-(2-fluorobenzyl)-5-(pyridin-2-yl)-1H-pyrazol-3-yl)pyridine] | 0 to 10 | 0 to 10 | A (A = no increase to <2 fold increase) | A (A = no increase to <2 fold increase) |  | A (A = no increase to <2 fold increase) |  | A (A = no increase to <2 fold increase) |  |  |  |  |  | 
11 | Cc1nnc(-c2cc(-c3ccccn3)nn2Cc2ccccc2F)o1 [Compound I-46] | 0 to 10 | 0 to 10 | A (A = no increase to <2 fold increase) | A (A = no increase to <2 fold increase) | C (C = 100 to <200) | A (A = no increase to <2 fold increase) | D (D = 200 to <500) | A (A = no increase to <2 fold increase) |  |  |  |  |  | 
12 | Nc1cc(-c2cccnc2)nc(-c2cc(-c3ccon3)n(Cc3ccccc3F)n2)n1 [Compound I-116] |  |  |  |  |  |  |  |  | 20 to 40 | 20 to 40 | C (C = 5 to <10 fold increase) | B (B = 2 to <5 fold increase) |  | 
13 | Oc1cccc(-c2cc(-c3ccccn3)nn2Cc2ccccc2F)n1 [Compound I-79, 6-(1-(2-fluorobenzyl)-3-(pyridin-2-yl)-1H-pyrazol-5-yl)pyridin-2-ol] |  |  |  |  |  |  |  |  | 0 to 10 | 0 to 10 | A (A = no increase to <2 fold increase) | A (A = no increase to <2 fold increase) | A (A = no increase to <2 fold increase) | A (A = no increase to <2 fold increase)
14 | Cc1ccc(-c2cc(-c3ccccn3)n(Cc3ccccc3F)n2)nc1 [Compound I-57] | 0 to 10 | 0 to 10 | A (A = no increase to <2 fold increase) | B (B = 2 to <5 fold increase) | B (B = 50 to <100) | A (A = no increase to <2 fold increase) | B (B = 50 to <100) | A (A = no increase to <2 fold increase) |  |  |  |  |  | 
